Tested on: stallion sperm cells
Assay: Motility of Hoechst-stained stallion sperm diluted in KMT with or without stimulant (Example 5)
Assay type: cell-based
Design: Motility 3h: unit not given here
Conditions: for Motility 3h / Progressive 3h: Motility Stimulants, 2 mM caffeine or 2.5 mM NaPyruvate in KMT; for Motility 3h with stimulant / Progressive 3h with stimulant: in % (unit assumed)
Protocol: Sperm cells in ejaculates from three stallions were initially evaluated for volume, concentration, and motility. The remaining portion of each ejaculate was extended in KMT to 25×10^6 sperm/mL and stored at RT for 18 hr. The stored ejaculates were pelleted by centrifugation at 600 g for 10 min. Pelleted sperm cells were resuspended in KMT with Hoechst to generate sperm samples of 400×10^6 sperm/mL,12.4 μl Hoechst, adjusted to either 7.1 pH or 7.9 pH, and then incubated at 34° C. for either 30 min or 60 min. Stained sperm cell samples were extended with either 1 mL KMT with 1.5 μl/mL 5% red food dye; 1 mL KMT with 2.0 μl/mL 5% red food dye; 1 mL KMT with 2.5 μl/mL 5% red food dye; or 1 mL KMT with 3.0 μl/mL […] red food dye. Sperm cell samples were then evaluated for % dead and resolution by flow cytometry analysis, and motility was evaluated by further diluting treated samples in either 140 μl KMT: 20 μl sperm cells; 140 μl KMT 2 mM caffeine: 20 μl sperm cells; 140 μl KMT, 2.5 mM NaPyruvate: 20 μl sperm cells.

[1] = stain time 30 min (12 samples only)
[2] = stain time 60 min (12 samples only)

Row | Structure (SMILES) | Motility 3h | Progressive 3h | Motility 3h with stimulant (food coloring 1.5 μl/mL) | Progressive 3h with stimulant (food coloring 1.5 μl/mL) | Motility 3h with stimulant (food coloring 2 μl/mL) | Progressive 3h with stimulant (food coloring 2 μl/mL) | Motility 3h with stimulant (food coloring 2.5 μl/mL) | Progressive 3h with stimulant (food coloring 2.5 μl/mL) | Motility 3h with stimulant (food coloring 3 μl/mL) | Progressive 3h with stimulant (food coloring 3 μl/mL) | Motility 3h with stimulant (pH 7.1, stain time 30 min) | Progressive 3h with stimulant (pH 7.1, stain time 30 min) | Motility 3h with stimulant (pH 7.1, stain time 60 min) | Progressive 3h with stimulant (pH 7.1, stain time 60 min) | Motility 3h with stimulant (pH 7.9, stain time 30 min) | Progressive 3h with stimulant (pH 7.9, stain time 30 min) | Motility 3h with stimulant (pH 7.9, stain time 60 min) | Progressive 3h with stimulant (pH 7.9, stain time 60 min) | Motility 3h with stimulant (stain pH 7.1) | Progressive 3h with stimulant (stain pH 7.1) | other results
1 | Cn1c(=O)c2c(ncn2C)n(C)c1=O [Caffeine, caffeine] | 67.71 | 66.56 | 66.67 | 65.42 | 68.33 | 67.5 | 68.75 | 67.92 | 67.08 | 65.42 | 66.67 | 65 | 70 | 70 | 66.67 | 65 | 67.5 | 65.83 | 68.54 | 67.5 | Effect of stimulant on sperm cell motility (FIG. 5) (about 2 mM): stimulate motility; Motility 3h with stimulant (stain pH 7.9): 66.88; Progressive 3h with stimulant (stain pH 7.9): 65.63; Motility 3h with stimulant [1]: 66.67; Progressive 3h with stimulant [1]: 65; Motility 3h with stimulant [2]: 68.75; Progressive 3h with stimulant [2]: 67.92; Motility 3h with stimulant (stallion Gunsmoke): 66.25; Progressive 3h with stimulant (stallion Gunsmoke): 63.13; Motility 3h with stimulant (stallion Rowdy): 67.5; Progressive 3h with stimulant (stallion Rowdy): 67.5; Motility 3h with stimulant (stallion Sylekt): 69.38; Progressive 3h with stimulant (stallion Sylekt): 69.06
2 | CC(=O)C(=O)O [Pyruvate, NaPyruvate] | 65.1 | 62.29 | 64.58 | 62.08 | 65 | 60.83 | 65.83 | 64.58 | 65 | 61.67 | 64.17 | 60.83 | 67.5 | 66.67 | 65 | 60 | 64.17 | 62.5 | 65.83 | 63.13 | Motility 3h with stimulant (stain pH 7.9): 64.38; Progressive 3h with stimulant (stain pH 7.9): 61.46; Motility 3h with stimulant [1]: 64.58; Progressive 3h with stimulant [1]: 60.42; Motility 3h with stimulant [2]: 65.83; Progressive 3h with stimulant [2]: 64.58; Motility 3h with stimulant (stallion Gunsmoke): 62.19; Progressive 3h with stimulant (stallion Gunsmoke): 56.56; Motility 3h with stimulant (stallion Rowdy): 67.19; Progressive 3h with stimulant (stallion Rowdy): 67.19; Motility 3h with stimulant (stallion Sylekt): 65.94; Progressive 3h with stimulant (stallion Sylekt): 63.13

— US20060067916A1, “Sperm cell process system” (XY, Inc., priority 2002, published 2006)
